The text below walks through data of ChEMBL document CHEMBL1201862, “PubChem BioAssay data set” (2004).

Test systems include U-251; NCI-H460; MDA-MB-435; SK-MEL-28; MCF7; SK-MEL-2; PC-3; SNB-19; SN12C; LOX IMVI; NCI-H226; IGROV-1; TK-10; CAKI-1; MDA-MB-231; NCI-H522; HCT-116; MDA-N; ACHN; HCT-15.
Holding throughout (assay): DTP human tumour cell line panel, 48 h

SMILES strings stand for the structures.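 Results reflect a 48-hour exposure of cells in 96-well plates to compound at five concentrations. GI50 marks 50% less growth.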 Active and inactive are the calls of the source. Rule as the data show it: active = GI50 up to about 1.1 µM and inactive = higher. Where only a bound is given, the exact number is not on record here.

Regarding `COC(=O)C1=C(C)C=C(N2CCOCC2)C(C(=O)OC)C1c1ccccc1` (stereo not given), the GI50 in the test on U-251, in the test on NCI-H460, in the test on MDA-MB-435, in the test with SK-MEL-28, in the test on MCF7 and in the test with SK-MEL-2 was > 10 µM (inactive) throughout. For the same molecule, the GI50 with PC-3, in the test on SNB-19, in the test on SN12C, in the test with LOX IMVI, with NCI-H226 and with IGROV-1 was > 10 µM (inactive) each time. The GI50 with TK-10, with CAKI-1, in the test on MDA-MB-231, in the test with NCI-H522, in the test with HCT-116 and in the test with MDA-N was > 10 µM (inactive) throughout. For the same molecule, the figures for the GI50 in the test on ACHN and with HCT-15 were > 10 µM (inactive) and greater than 10 µM, respectively.
Take `[N-]=[N+]=Nc1ccc2c(c1)Sc1ccccc1N2CCCCCl`: the GI50 is 23.7 µM (inactive) in the test on U-251; 83.2 µM (inactive) in the test with NCI-H460; 51.4 µM (inactive) with MDA-MB-435; > 100 µM (inactive) in the test on SK-MEL-28; 14.9 µM (inactive) with MCF7; 13.5 µM (inactive) in the test with SK-MEL-2. For the same molecule, the GI50 in the test on PC-3 is 41.3 µM (inactive); with SNB-19, > 100 µM (inactive); with SN12C it was > 100 µM (inactive); in the test on LOX IMVI, 36.8 µM (inactive); in the test on NCI-H226, 48.9 µM (inactive); in the test with IGROV-1, > 100 µM (inactive). In addition, the GI50 in the test with TK-10 is > 100 µM (inactive); with CAKI-1 it was > 100 µM (inactive); in the test on MDA-MB-231 it was > 100 µM (inactive); in the test on NCI-H522, 40.7 µM (inactive); in the test with HCT-116 it was 30.2 µM (inactive); in the test with MDA-N, 48.4 µM (inactive). Besides, the GI50 was > 100 µM (inactive) with ACHN and 81.3 µM in the test on HCT-15.
For the molecule `[N-]=[N+]=C(C(=O)OCC#CCOC(=O)C(=[N+]=[N-])S(=O)(=O)c1ccccc1)S(=O)(=O)c1ccccc1`, the GI50 with U-251, in the test on NCI-H460, with MDA-MB-435, in the test on SK-MEL-28, in the test with MCF7 and in the test on SK-MEL-2 was > 10 µM (inactive) each time. The GI50 with PC-3, in the test on SNB-19, in the test with SN12C, with LOX IMVI, in the test with NCI-H226 and with IGROV-1 was > 10 µM (inactive) in each case. The GI50 in the test on TK-10, with CAKI-1, with MDA-MB-231, in the test with NCI-H522, in the test on HCT-116 and in the test on MDA-N was > 10 µM (inactive) each time. The GI50 was > 10 µM (inactive) in the test with ACHN and greater than 10 µM with HCT-15.
Take `ONCCCn1cnc2c(NC3CC3)ncnc21`: the GI50 with U-251, in the test on NCI-H460, with MDA-MB-435, with SK-MEL-28, in the test with MCF7 and with SK-MEL-2 was > 100 µM (inactive) throughout. In addition, the GI50 in the test on PC-3, with SNB-19, in the test on SN12C, in the test with LOX IMVI, in the test with NCI-H226 and in the test with IGROV-1 was > 100 µM (inactive) throughout. The GI50 with TK-10, with CAKI-1, in the test on MDA-MB-231, with NCI-H522, in the test on HCT-116 and in the test on MDA-N was > 100 µM (inactive) each time. The GI50 with ACHN is > 100 µM (inactive); with HCT-15, greater than 100 µM.
For `CCC/C(Cl)=N/OC(NC(=O)OCC)(C(F)(F)F)C(F)(F)F`, the GI50 in the test on U-251 was > 100 µM (inactive); in the test with NCI-H460 it was > 100 µM (inactive); with MDA-MB-435, 18.6 µM (inactive); in the test with SK-MEL-28 it was 26.5 µM (inactive); with MCF7, 23.6 µM (inactive); in the test on SK-MEL-2, > 100 µM (inactive). The GI50 with PC-3 is 98.9 µM (inactive); in the test on SNB-19, > 100 µM (inactive); in the test with SN12C, 16.7 µM (inactive); in the test with LOX IMVI it was 17.9 µM (inactive); in the test on NCI-H226, > 100 µM (inactive); with IGROV-1, 16.6 µM (inactive). In addition, the GI50 with TK-10 was 19 µM (inactive); in the test on CAKI-1, 20.6 µM (inactive); in the test on MDA-MB-231, 17.6 µM (inactive); with NCI-H522 it was > 100 µM (inactive); with HCT-116, 19.4 µM (inactive); in the test with MDA-N, 20.5 µM (inactive). The GI50 was 18.3 µM (inactive) in the test on ACHN and 21.6 µM in the test on HCT-15.
In the case of `Cc1ccnc2[nH]c3ccccc3c(=O)c12`, the GI50 in the test with U-251 was > 10 µM (inactive); in the test on NCI-H460, 19 µM (inactive); in the test on MDA-MB-435, 19.6 µM (inactive); in the test with SK-MEL-28, 15.1 µM (inactive); in the test with MCF7, 21.8 µM (inactive); in the test with SK-MEL-2 it was 25.2 µM (inactive). The GI50 in the test with PC-3 was 21.8 µM (inactive); in the test with SNB-19, 29.6 µM (inactive); with SN12C, 21.3 µM (inactive); in the test on LOX IMVI, 19.5 µM (inactive); with NCI-H226, 24.7 µM (inactive); with IGROV-1 it was 17.5 µM (inactive). Also, the GI50 is 10.1 µM (inactive) with TK-10; 8.41 µM (inactive) in the test on CAKI-1; 38.8 µM (inactive) with MDA-MB-231; 15.2 µM (inactive) in the test on NCI-H522; 16.6 µM (inactive) in the test with HCT-116; 21 µM (inactive) in the test with MDA-N. For the same molecule, the results for the GI50 in the test with ACHN and in the test on HCT-15 were 20.5 µM (inactive) and 25.5 µM, respectively.
As for `CCCCc1c2c(c(C)c3c1C(=O)OC3)Oc1ccccc1O2`, the GI50 in the test with U-251 was 0.57 µM (active); in the test on NCI-H460, 0.369 µM (active); in the test on MDA-MB-435, 0.173 µM (active); in the test with SK-MEL-28, > 63.2 µM (inactive); in the test with MCF7, 1.63 µM (inactive); in the test on SK-MEL-2, 0.541 µM (active). Also, the GI50 with PC-3 was 0.442 µM (active); in the test with SNB-19 it was 3.95 µM (inactive); in the test on SN12C it was 1.85 µM (inactive); in the test with LOX IMVI it was 2.25 µM (inactive); with NCI-H226, 2.8 µM (inactive); in the test on IGROV-1 it was 0.608 µM (active). For the same molecule, the GI50 was 2.29 µM (inactive) in the test with TK-10; 5.74 µM (inactive) in the test with CAKI-1; 2.57 µM (inactive) in the test with MDA-MB-231; 0.217 µM (active) with NCI-H522; 0.565 µM (active) in the test on HCT-116; 0.145 µM (active) with MDA-N. The GI50 was 4.59 µM (inactive) in the test on ACHN and 0.708 µM with HCT-15.
